What was measured:
BT-474 = test: Anticancer activity against human BT-474 assessed as cell growth inhibition incubated for 4 days by WST-8 assay; type: functional; details: BT-474, 96 h, time 4 day
HT-29 = test: Cytotoxicity against human HT-29 cells assessed as cell growth inhibition; type: functional, cell-based
HCT-116 = test: Cytotoxicity against human HCT-116 cells assessed as cell growth inhibition measured after 96 hrs by resazurin dye based assay; type: functional
H3396 = test: Cytotoxicity against human H3396 cells assessed as cell growth inhibition measured after 96 hrs by resazurin dye based assay; type: functional
MOLM-13 = test: Cytotoxicity against human MOLM-13 cells assessed as cell growth inhibition; type: functional, cell-based
L1210 = test: Cytotoxicity against mouse L1210 cells assessed as cell growth inhibition measured after 24 hrs; type: functional, cell-based; details: L1210, 24 h
Tubulin = test: Inhibition of tubulin (unknown origin) polymerization assessed as reduction in microtubule formation measured for 20 mins by spectrophotometric analysis; type: protein-complex assay, Homo sapiens

SMILES	GI50 (BT-474)	IC50 (HT-29)	also measured
CC[C@H](C)[C@@H]([C@@H](CC(=O)N1C[C@@H](OC)C[C@H]1[C@H](OC)[C@@H](C)C(=O)NCCc1ccccc1)OC)N(C)C(=O)[C@@H](NC(=O)[C@H](C(C)C)N(C)C)C(C)C	0.24 nM		
CC[C@H](C)[C@@H]([C@@H](CC(=O)N1CCC[C@H]1[C@H](OC)[C@@H](C)C(=O)NC1(C(=O)N2CCCCO2)C[C@@H]1c1ccccc1)OC)N(C)C(=O)[C@@H](NC(=O)[C@H](C(C)C)N(C)C)C(C)C (stereo partly drawn)		0.5 nM	
CC[C@H](C)[C@@H]([C@@H](CC(=O)N1C[C@@H](O)C[C@H]1[C@H](OC)[C@@H](C)C(=O)NCCc1c(F)cccc1F)OC)N(C)C(=O)[C@@H](NC(=O)[C@H](C(C)C)N(C)C)C(C)C	0.23 nM		
CC[C@H](C)[C@@H]([C@@H](CC(=O)N1C[C@H](O)C[C@H]1[C@H](OC)[C@@H](C)C(=O)NCCc1ccccc1)OC)N(C)C(=O)[C@@H](NC(=O)[C@H](C(C)C)N(C)C)C(C)C	0.68 nM		
CC[C@H](C)[C@@H]([C@@H](CC(=O)N1CCC[C@H]1[C@H](OC)[C@@H](C)C(=O)N[C@@H](Cc1ccccc1)c1nn[nH]n1)OC)N(C)C(=O)[C@@H](NC(=O)[C@H](C(C)C)N(C)C)C(C)C			GI50 (HCT-116): 6 nM; GI50 (H3396): 0.09 nM
CC[C@H](C)[C@@H]([C@@H](CC(=O)N1CCC[C@H]1[C@H](OC)[C@@H](C)C(=O)N[C@H](/C=C\c1ccccc1)Cc1ccccc1)OC)N(C)C(=O)[C@@H](NC(=O)[C@H](C(C)C)N(C)CCCC(=O)O)C(C)C		3.3 nM	
CC[C@H](C)[C@@H]([C@@H](CC(=O)N1CCC[C@H]1[C@H](OC)[C@@H](C)C(=O)N[C@@H](Cc1ccccc1)c1nnc(-c2ccccc2)o1)OC)N(C)C(=O)[C@@H](NC(=O)[C@H](C(C)C)N(C)CCCC(=O)O)C(C)C		0.1 nM	
CC[C@H](C)[C@@H]1[C@H](OC)CC(=O)N2C[C@H](C[C@H]2[C@H](OC)[C@@H](C)C(=O)N[C@@H](Cc2ccccc2)C(=O)OC)NC(=O)CCCC(=O)N[C@@H](C)[C@H](NC(=O)[C@H](NC)C(C)C)C(=O)N1C			IC50 (MOLM-13): > 1000 nM
CCOP(=O)(OCC)[C@H](Cc1ccccc1)NC(=O)[C@H](C)[C@@H](OC)[C@@H]1CCCN1C(=O)C[C@@H](OC)[C@H]([C@@H](C)CC)N(C)C(=O)[C@@H](NC(=O)[C@H](C(C)C)N(C)C)C(C)C			GI50 (HCT-116): 6 nM; GI50 (H3396): 0.09 nM
CC[C@H](C)[C@@H]([C@@H](CC(=O)N1C[C@@H](N=[N+]=[N-])C[C@H]1[C@H](OC)[C@@H](C)C(=O)N[C@@H](Cc1ccccc1)C(=O)OC)OC)N(C)C(=O)[C@@H](NC(=O)[C@H](C(C)C)N(C)C)[C@H](C)N=[N+]=[N-]			GI50 (MOLM-13): 0.057 nM
CC[C@H](C)[C@@H]([C@@H](CC(=O)N1CCC[C@H]1/C=C(\C)C(=O)N[C@@H](Cc1ccccc1)c1nccs1)OC)N(C)C(=O)[C@@H](NC(=O)[C@H](C(C)C)N(C)C)C(C)C			IC50 (L1210): > 10000 nM
CC[C@H](C)[C@@H]([C@@H](CC(=O)N1C[C@@H](NC)C[C@H]1[C@H](OC)[C@@H](C)C(=O)NCCc1c(F)cccc1F)OC)N(C)C(=O)[C@@H](NC(=O)[C@H](C(C)C)N(C)C)C(C)C	0.34 nM		
CC[C@H](C)[C@@H]([C@@H](CC(=O)OC(C)(C)C)OC)N(C)C(=O)[C@@H](NC(=O)[C@H](C(C)C)N(C)C)C(C)C			IC50 (Tubulin): 4.2 nM
CC[C@H](C)[C@@H]([C@@H](CC(=O)N1C[C@@H](N)C[C@H]1[C@H](OC)[C@@H](C)C(=O)NCCc1c(F)cccc1F)OC)N(C)C(=O)[C@@H](NC(=O)[C@H](C(C)C)N(C)C)C(C)C	0.17 nM		
CC[C@H](C)[C@@H]([C@@H](CC(=O)N1CCC[C@H]1[C@H](OC)[C@@H](C)C(=O)NC1(C(=O)N2Cc3ccccc3CO2)C[C@@H]1c1ccccc1)OC)N(C)C(=O)[C@@H](NC(=O)[C@H](C(C)C)N(C)C)C(C)C (stereo partly drawn)		1.2 nM	
CC[C@H](C)[C@@H]([C@@H](CC(=O)N1CCC[C@H]1[C@H](OC)[C@@H](C)C(=O)N[C@H](/C=C/c1ccccc1)Cc1ccccc1)OC)N(C)C(=O)[C@@H](NC(=O)[C@H](C(C)C)N(C)CCCC(=O)O)C(C)C		0.3 nM	
